Test results: patent publication US10563197B2, “Use of a combination of Dbait molecule and PARP inhibitors to treat cancer” (INSTITUT CURIE, priority 2015, dated 2020)

Tests used:
Type in all cases: cell-based, human
HCT116 = test: Cell survival, trypan blue counting; details: 4.80 μM of AsiDNA and/or 0.1 μM of Ola; day 6 after treatment
Procedure: (§5) Cells were grown according to the supplier's instructions. Cell lines were maintained at 37° C. in a humidified atmosphere at 5% CO2.
(§6) AsiDNA or PARPi cytotoxicity was measured by relative survival and cell death quantification. Adherent cells were seeded in 24-well culture plates at appropriate densities and incubated 24 hours at 37° C. before AsiDNA and/or PARPi addition. Cells were harvested day 6aftertreatment, stained with 0.4% trypan blue (Sigma Aldrich, Saint-Louis, USA) and counted with a Burker chamber. Cell survival was calculated as ratio of living treated cells to living mock-treated cells. Cell death was calculated as the number of dead cells on the total number of counted cells. Additivity of the toxicity was calculated by the product of cell survivals to AsiDNA and cell survivals to PARPi.

BRCA^−/− cell lines = test: Cell death and proliferation in BRCA-mutated cell lines; details: 0.1 μM Ola, 4.8 μM AsiDNA; sensitive = difference in % dead cells higher than two-fold
Procedure: (§1) Efficacy of Ola and AsiDNA was assessed by measuring cell death and proliferation in 12BC cell lines including 4BRCA-mutated cell lines (FIGS. 4A and B and FIG. 5). In addition, HeLa cells silenced for BRCA1 or BRCA2 genes were used as a control of BRCA mutation factor and 3 immortalized mammary cell lines (MCF10A, MCF12A and 184B5) as non-tumor controls. The concentration of the drugs (0.1 μM for Ola and 4.8 μM for AsiDNA) were chosen based on the 75-80% survival in the BC227 BRCA2^−/− mutant. […] Ola and AsiDNA treatments had no effect on the three control non-tumor cell lines.
(§2) Cells were grown according to the supplier's instructions.

HCC38 = test: Cell survival, trypan blue counting; details: 4.80 μM of AsiDNA and/or 0.1 μM of Ola; day 6 after treatment
Procedure: as §5, §6

[1] = test system: Breast cancer cell lines MDAMB231; test: Cell survival with DT01 and PARP inhibitors (Example 1, FIG. 1); details: DT01 100 or 333 μg/ml plus Olaparib 0.1, 1 μM or Veliparib 1, 10, 50 μM; 6 days
Procedure: Breast cancer cell lines MDAMB231 were treated with 100 μg/ml (Black, Squares) or 333 μg/ml (Grey, Crosses) of DT01 or no DT01 (Black, Diamond) and exposed to either 0, 0.1 and 1 μM of Olaparib (upper panel) or 1, 10 and 50 μM Veliparib (lower panel). Survival was measured 6 days after treatment using trypan blue to detect living cells. The data are presented as % of the non-treated control.
The human cell lines were grown in complete RPMI (Gibco, Cergy Pontoise, France) supplemented with 10% fetal bovine serum (ATGC, Orléans, France), 1% sodium pyruvate, streptomycin ([…]) and penicillin ([…]) (Invitrogen, Carlsbad, Calif., USA). Cells were maintained at 37° C. under a 5% CO2 atmosphere, at 100% humidity. Treatments were performed by adding nucleotides (DT01 and others) or/and PARP inhibitors at time zero in medium without serum. The medium was changed with fresh medium containing fetal bovine serum 24 hours after beginning of treatment. Cells were let to grow for 4 additional days (5 days after treatment), treated with trypsin and counted for total number of cells. Trypan blue (0.4%) was added for counting the living cells (uncolored) in the population.

Hep2 = test: Cell survival, trypan blue counting; details: 4.80 μM of AsiDNA and/or 0.1 μM of Ola; day 6 after treatment
Procedure: as §5, §6

2 non-tumor cell lines = test: Combined treatment survival in non-tumor cell lines (FIG. 6, 12); details: AsiDNA 4.8 μM, olaparib 0.1 and 1 μM; 6 days
Procedure: Efficacy of AsiDNA (4. 8 μM), olaparib (0, 0.1 and 1 μM) or both was monitored 6 days after treatment by cell counting after trypan blue labeling. (A) Percentage of living cells relative to non-treated condition (NT). (B) Percentage of dead cells. Data are expressed as mean+Sc.D. of at least 2 independent experiments. Dotted lines indicate the calculated cell survivals if additivity between AsiDNA and olaparib.
(A) Percentage of living cells relative to non-treated condition (NT). (B) Percentage of dead cells. Dotted lines indicate the calculated cell survivals if additivity between AsiDNA and veliparib.
The inventors monitored cell survival to combined treatment of 3 BC and 2 non-tumor cell lines with different sensitivities to Ola and AsiDNA alone (FIG. 6; Table 1).

MO59K = test: Cell survival, trypan blue counting; details: 4.80 μM of AsiDNA and/or 0.1 μM of Ola; day 6 after treatment
Procedure: as §5, §6

MDAMB231 tumor cells = test: Alkaline comet assay; details: 24 h; AsiDNA (16 μM) or olaparib (1 μM) alone
Procedure: (§3) To dissect this cytotoxic synergy, the inventors examined the effect of AsiDNA, Ola or both on DNA repair activities. […] Pan-nuclear phosphorylation of H2AX is thought to be involved in the inhibition of HR and NHEJ repair enzyme recruitment by AsiDNA. […] This increase could account for the efficient toxicity of the combination in MDAMB231 cells.
(§4) Cells treated with AsiDNA (16 μM), olaparib (1 μM) or both were suspended in 0.5% low melting point agarose in DMEM and transferred onto a frosted glass microscope slide precoated with a layer of 0.5% normal melting point agarose. Slides were immersed in lysis solution [2.5 mol/L NaCl, 100 mmol/L EDTA, 10 mmol/L Tris, 1% sodium lauryl sarcosinate, 10% DMSO, 1% Triton X-100 (pH 10)] at 4jC for 1 h, placed in a electrophoresis tank containing 0.3 mol/L NaOH (pH 13) and 1 mmol/L EDTA for 40 min, electrophoresis for 25 min at 25 V (300 mA), washed with neutral buffer [400 mmol/L Tris-HCl (pH 7.5)], and stained with 20 Ag/mL ethidium bromide. The variables of the “comets” were quantified with the use of the software Comet Assay 2 (Perceptive Instrument). Triplicate slides were processed for each experimental point. The tail moment is defined as the product of the percentage of DNA in the tail and the displacement between the head and the tail of the comet.

MCF10A non-tumor cells = test: Alkaline comet assay; details: 24 h; olaparib (1 μM) alone or with AsiDNA (16 μM)
Procedure: as §3, §4

MO59J = test: Cell survival, trypan blue counting; details: 4.80 μM of AsiDNA and/or 0.1 μM of Ola; day 6 after treatment
Procedure: as §5, §6

Hut78 = test: Cell survival, trypan blue counting; details: 4.80 μM of AsiDNA and/or 0.1 μM of Ola; day 6 after treatment
Procedure: as §5, §6

BT20 = test: Cell death and proliferation; details: 0.1 μM Ola, 4.8 μM AsiDNA; sensitive = difference in % dead cells higher than two-fold
Procedure: as §1, §2

HCC1143 = test: Cell death and proliferation; details: 0.1 μM Ola, 4.8 μM AsiDNA; sensitive = difference in % dead cells higher than two-fold
Procedure: as §1, §2

HCC70 = test: Cell death and proliferation; details: 0.1 μM Ola, 4.8 μM AsiDNA; sensitive = difference in % dead cells higher than two-fold
Procedure: as §1, §2

MCF7 = test: Cell death and proliferation; details: 0.1 μM Ola, 4.8 μM AsiDNA; sensitive = difference in % dead cells higher than two-fold
Procedure: as §1, §2

BC227 = test: Cell survival, trypan blue counting; details: 4.80 μM of AsiDNA and/or 0.1 μM of Ola; day 6 after treatment; listed as Ola
Procedure: as §5, §6

[2] = test system: 3 immortalized mammary cell lines (MCF10A, MCF12A and 184B5); test: Cell death and proliferation in non-tumor controls; details: 0.1 μM for Ola and 4.8 μM for AsiDNA
Procedure: as §1, §2

HeLa CTL KD = test: Cell survival, trypan blue counting; details: 4.80 μM of AsiDNA and/or 0.1 μM of Ola; day 6 after treatment
Procedure: as §5, §6

O=C(c1cc(Cc2n[nH]c(=O)c3ccccc23)ccc1F)N1CCN(C(=O)C2CC2)CC1 [Olaparib, 4-[(3-[(4-cyclopropylcarbonyl)piperazin-4-yl]carbonyl)-4-fluorophenyl]methyl(2H)-phthalazin-1-one]
Survival (%/NT) (HCT116): 82.9 %/NT
sensitivity to treatment (BRCA^−/− cell lines): sensitive to both treatments
Survival (%/NT) (HCC38): 66.7 %/NT
survival to combined treatment with DT01 versus expected added effect of both single treatments [1]: synergic effect
Survival (%/NT) (Hep2): 101 %/NT
sensitivity to combined and single treatments (2 non-tumor cell lines): insensitive
Survival (%/NT) (MO59K): 117.3 %/NT
DNA damage (alkaline comet assay) (MDAMB231 tumor cells): induced accumulation of damage
DNA damage (alkaline comet assay) (MCF10A non-tumor cells): slight increase of DNA damage
Survival (%/NT) (MO59J): 87.5 %/NT
Survival (%/NT) (Hut78): 85.8 %/NT
sensitivity to treatment (BT20): resistant to both treatments
sensitivity to treatment (HCC1143): sensitive only to AsiDNA
sensitivity to treatment (HCC70): resistant to both treatments
sensitivity to treatment (MCF7): resistant to both treatments
Survival (%/NT) (BC227): 75.3 %/NT
effect on cell death and proliferation [2]: no effect
Survival (%/NT) (HeLa CTL KD): 97.2 %/NT
